Results from patent publication US20200237700A1, “METHODS OF REDUCING OR PREVENTING OXIDATION OF SMALL DENSE LDL OR MEMBRANE POLYUNSATURATED FATTY ACIDS” (Amarin Pharmaceuticals Ireland Limited, priority 2015, published 2020).

Tests used:
[1] = Glucose-induced membrane lipid peroxidation (LOOH) in multilamellar vesicles, CHOD-iodide assay (Example 4); assay type: biochemical
Procedure: Vitamin E (α-tocopherol) was also purchased from Sigma-Aldrich and prepared in ethanol at 1.0 mM (ε=3.06×10^4 M^−1 cm^−1 at 294 nm) just prior to experimental use. […] All test compounds were further diluted in ethanol or aqueous buffer as needed. Glucose was prepared in saline buffer (0.5 mM HEPES, 154 mM NaCl, pH 7.3) at 11.0 mM (200 mg/dL). CHOD-iodide color reagent (stock) was prepared, with slight modification, as described by from El-Saadani et al. (J. […] Samples were shell-dried under nitrogen gas and placed under vacuum for 1 h to remove residual solvent. […] Lipid suspensions were then vortexed for 3 min at ambient temperature to form MLVs. All MLV samples were subjected to time-dependent autoxidation by incubating at 37° C. in an uncovered, shaking water bath. This method allows lipid peroxidation to occur gradually without requiring the use of exogenous initiators. Small aliquots (5-100 μL) of each sample were removed, immediately following MLV preparation (0 hour) and after exposing samples to oxidative conditions for 72 or 96 hour, and combined with 1.0 mL of activated CHOD-iodide color reagent. Aliquot volume was reduced with each successive time point to ensure that spectrophotometric readings were within the optimal adsorption range. Test samples were covered and incubated in darkness at room temperature for at least 4 hr. Sample absorbances were then measured against a CHOD blank at 365 nm using a Beckman DU-640 spectrophotometer. The CHOD colorimetric assay is based on the oxidation of iodide (I^−) by lipid hydroperoxide (LOOH) to form triiodide (I3^−), the quantity of which is directly proportional to the amount of LOOH present in the lipid sample. The molar absorptivity (E) of I3^− is 2.46×10^4 M^−1 cm^−1 at 365 nm. […] The concentration of glucose selected was consistent with previous experimental studies of hyperglycemia under controlled laboratory conditions or observed in well-defined animal models of Type II diabetes following a glucose challenge. […] Values in FIG. 1 are mean±S.D. (N=6). EPA inhibited the peroxidative effects of glucose by 88% and 86% at 72 and 96 hours, respectively, which was highly significant (p<0.001) as compared to glucose treatment alone. […] Overall ANOVA-0 hour data: p=0.6655, F=0.4185; 72 hour data: p<0.0001, F=428.72; 96 hour data: p<0.0001, F=322.01.

human sdLDL [2] = experiment: Copper-induced sdLDL oxidation, TBARS (Example 7); assay type: biochemical; conditions: for effect on sdLDL oxidation as compared to vehicle-treated controls: 10 μM, 1 hour
Procedure: (§1) An experiment to study the antioxidant effect of EPA in LDL and small dense […] performed. […] Fenofibrate, gemfibrozil, and niacin were purchased from Sigma-Aldrich. […] Vitamin E was also incubated with sample aliquots as a positive control.

[3] = test system: human LDL (unfractionated); experiment: Copper-induced unfractionated LDL oxidation, TBARS 1 hr (Example 7); assay type: biochemical; conditions: 10 μM
Procedure: as §1

[4] = Small angle x-ray diffraction of cholesterol-enriched POPC model membranes, cholesterol domain peak intensity (Example 9); assay type: physicochemical; conditions: drug-to-phospholipid mole ratio 1:30
Procedure: The fatty acid stock solutions were stored at −20° C. until use. […] Samples were shell-dried under nitrogen gas and placed under vacuum for 3 hours to remove residual solvent at room temperature. After desiccation, each sample was resuspended in saline buffer (0.5 mM HEPES, 154 mM NaCl, pH 7.3) to yield a final phospholipid concentration of 2.5 mg/mL. Lipid suspensions were then vortexed for 3 minutes at ambient temperature to form MLVs. Membrane lipid vesicles were oriented for x-ray diffraction analysis as described by others (e.g., Herbette et al., Biophys. […] Briefly, a 100 μL aliquot of each MLV preparation (containing 250 μg MLV) was transferred to a Lucite® sedimentation cell fitted with an aluminum foil substrate designed to collect MLVs into a single membrane pellet upon centrifugation. […] After centrifugal orientation, sample supernatants were aspirated and aluminum foil substrates, each supporting a single membrane pellet, were removed from the sedimentation cells. Sample pellets were dried for 5-10 minutes at ambient conditions, mounted onto curved glass supports, and placed in hermetically-sealed, brass or glass containers (for immediate analysis or temporary storage, respectively). All x-ray diffraction experiments were conducted at 20° C., 74% relative humidity. The latter was established by exposing membrane samples to saturated solutions of L-(+)-tartaric acid (K2C4H4O6.½H2O) for at least 1 hour prior to experimental analysis. Oriented membrane samples were aligned at grazing incidence with respect to a collimated, mono-chromatic CuKα x-ray beam (Kα1 and Kα2 unresolved; λ=1.54 Å) produced by a Rigaku Rotaflex RU-200, high-brilliance microfocus generator (Rigaku-MSC, The Woodlands, Tex.) as previously described (Mason et al., Biophys. J., vol. 55(4), pages 769-778 (1989)). The samples were initially subjected to x-ray diffraction analysis at least 12 hours after formation of the membrane pellets and retested for up to several days. […] Collimation of the x-ray beam was achieved using a single Franks mirror. Diffraction data were collected on a one-dimensional, position-sensitive electron detector (Hecus X-ray Systems, Graz, Austria) at a sample-to-detector distance of 150 mm from the sample site. […] Routines written in Origin 8.6 (OriginLab Corporation, Northampton, Mass.) were used to determine total peak area (associated with all diffraction peaks in a given pattern) against which the second-order cholesterol domain peak was normalized. […] Differences between groups were analyzed using the two-tailed, Student's t-test (for comparisons between only two groups) or ANOVA followed by Dunnett or Student-Newman-Keuls multiple comparisons post-hoc analysis (for comparisons between three or more groups). […]

[5] = test system: sdLDL isolated from human subjects under hyperglycemia; experiment: Glucose-induced sdLDL oxidation, TBARS/MDA (Example 10); assay type: biochemical; conditions: glucose 200 mg/dL; for glucose-induced sdLDL oxidation: 10.0 μM
Procedure: Vitamin E (α-tocopherol) purchased from Sigma-Aldrich was prepared in ethanol at 1.0 mM (c=3.06×10^4 M^−1 cm^−1 at 294 nm) prior to experimental use. Test compounds were further diluted in ethanol or aqueous buffer as needed. Phosphate Buffered Saline (PBS) purchased from Sigma-Aldrich was prepared in double distilled water at 10 mM (138 mM NaCl, 2.7 mM KCl, pH 7.4). […] Lipid oxidation was measured by the colorimetric detection of malondialdehyde (MDA), a marker of oxidative stress. Data were presented as mean±SD for (n) separate samples or experiments. Differences between groups were analyzed using the unpaired, two-tailed Student's t-test (for comparisons between only two groups) or ANOVA followed by Student-Newman-Keuls multiple comparisons post hoc analysis (for comparisons between three or more groups).

human sdLDL [6] = experiment: Copper-induced sdLDL oxidation, TBARS after 2 hr (Example 6); assay type: biochemical
Procedure: An experiment to study the antioxidant effect of EPA in small dense […] performed. […] Vitamin E (α-tocopherol) was purchased from Sigma-Aldrich and prepared in ethanol at 1.0 mM (ε=3.06×10^4 M^-1 cm^-1 at 294 nm) just prior to experimental use. All test compounds were further diluted in ethanol or aqueous buffer as needed. Venous blood was collected from healthy volunteers into vacutainer tubes containing sodium EDTA. Plasma was separated by centrifugation at 3000 g for 25 min at 4° C. and adjusted to a density of 1.020 g/mL with KBr. Triglyceride-rich lipoproteins (TGRL) and LDL fractions were then isolated by sequential centrifugation at 70,000 rpm at 4° C. in a Beckman LE-80 ultracentrifuge using a Beckman 50.4Ti rotor (Beckman Coulter, Inc., Fullerton, Calif.). The TGRL fraction (with a relative density of <1.020) was aspirated from the top of the centrifugate and discarded, leaving an LDL-enriched […] relative density of 1.020 to 1.063). […] The sdLDL subfraction was retained for additional experimentation. Plasma and lipoprotein fractions were maintained at 4° C. and protected from excessive exposure to light. Prior to oxidation experiments, EDTA was removed from the lipoprotein fraction using PD-10 desalting columns (GE Healthcare, Piscataway N.J.). After equilibration of the column with phosphate buffered saline (PBS), 2.5 mL of the lipoprotein fraction was loaded on the column and the flow-through discarded. The lipoprotein was then eluted with 3 mL of PBS. The LDL fractions were further diluted with PBS to obtain a 100 μg/mL apoB100 concentration. […] Data are presented as mean±S.D. for (N) separate samples or treatment groups. Differences between groups were analyzed using the two-tailed, Student's t-test (for comparisons between only two groups) or ANOVA followed by Dunnett or Student-Newman-Keuls multiple comparisons post-hoc analysis (for comparisons between three or more groups).

[7] = test system: sdLDL from plasma of healthy volunteers; experiment: Time-dependent sdLDL oxidation, MDA formation over 4 hours (Example 13); assay type: biochemical, human; conditions: entire experimental time course (4 hours)
Procedure: sdLDL was isolated from the plasma of healthy volunteers by iodixanol density gradient centrifugation and adjusted to a final apolipoprotein concentration of 2 mg/mL. Sample aliquots (100 μg apolipoprotein) were incubated with EPA, DHA, or EPA+DHA (each at 10 μM) for 30 minutes at 37° C. and then treated with 10 μM CuSO4 to initiate lipid oxidation. sdLDL oxidation was measured spectrophotometrically as a function of malondialdehyde (MDA) formation at various intervals over 4 hours. Vitamin E was also tested as a positive control. Experiments were conducted in triplicate and reported as mean±SD.

[8] = test system: unfractionated LDL isolated from human plasma; experiment: Copper-induced oxidation of unfractionated LDL, TBARS (Example 6); assay type: biochemical; conditions: 1.0 μM to 10.0 μM; data not shown
Procedure: All test compounds were further diluted in ethanol or aqueous buffer as needed. Venous blood was collected from healthy volunteers into vacutainer tubes containing sodium EDTA. […] Plasma and lipoprotein fractions were maintained at 4° C. and protected from excessive exposure to light. Prior to oxidation experiments, EDTA was removed from the lipoprotein fraction using PD-10 desalting columns (GE Healthcare, Piscataway N.J.). After equilibration of the column with phosphate buffered saline (PBS), 2.5 mL of the lipoprotein fraction was loaded on the column and the flow-through discarded. The lipoprotein was then eluted with 3 mL of PBS. The LDL fractions were further diluted with PBS to obtain a 100 μg/mL apoB100 concentration. […] Differences between groups were analyzed using the two-tailed, Student's t-test (for comparisons between only two groups) or ANOVA followed by Dunnett or Student-Newman-Keuls multiple comparisons post-hoc analysis (for comparisons between three or more groups).

[9] = Small angle x-ray diffraction of glucose-treated model membranes, cholesterol domain peak intensity (Example 4); assay type: physicochemical; conditions: any experimental time point; 1:30 drug-to-phospholipid; glucose 200 mg/dL
Procedure: After centrifugal orientation, sample supernatants were aspirated and aluminum foil substrates, each supporting a single membrane pellet, were removed from the sedimentation cells. […] All x-ray diffraction experiments were conducted at 20° C., 74% relative humidity.
Oriented membrane samples were aligned at grazing incidence with respect to a collimated, mono-chromatic CuKα x-ray beam (Kα1 and Kα2 unresolved; λ=1.54 Å) produced by a Rigaku Rotaflex RU-200, high-brilliance microfocus generator (Rigaku-MSC, The Woodlands, Tex.) as previously described (Mason et al., Biophys. J., vol. 55(4), pages 769-778 (1989)).
Routines written in Origin 8.6 (OriginLab Corporation, Northampton, Mass.) were used to determine total peak area (associated with all diffraction peaks in a given pattern) against which the second-order cholesterol domain peak was normalized.

SMILES: CC(C)c1c(C(=O)Nc2ccccc2O)c(-c2ccccc2)c(-c2ccc(F)cc2)n1CC[C@@H](O)C[C@@H](O)CC(=O)O [ATM, Atorvastatin ortho- (o-) hydroxy (active) metabolite]
- antioxidant effects of separate treatments (LOOH formation) ([1]; each at 1.0 μM, glucose 200 mg/dL, 96 hours): potent antioxidant effects
- inhibition of sdLDL oxidation vs vehicle (human sdLDL [2]; ATM 0.5 μM, alone or in combination with EPA 1.0 μM, 1 hr): 5±5%
- inhibition of sdLDL oxidation vs vehicle (human sdLDL [2]; each agent at 1.0 μM, 1 hr): 18±5%

SMILES: CC(C)c1c(C(=O)Nc2ccccc2)c(-c2ccccc2)c(-c2ccc(F)cc2)n1CC[C@@H](O)C[C@@H](O)CC(=O)O [atorvastatin]
- effect on sdLDL oxidation as compared to vehicle-treated controls (human sdLDL [2]): did not have any significant antioxidant activity
- inhibited TBARS formation / sdLDL oxidation vs vehicle (human sdLDL [2]; each agent at 10 μM, 1 hr): 0.1±7%
- effect on unfractionated LDL oxidation as compared to vehicle-treated controls [3]: did not have any significant antioxidant activity

SMILES: Cc1ccc(C)c(OCCCC(C)(C)C(=O)O)c1 [gemfibrozil]
- effect on cholesterol domains / domain size [4]: no significant changes in cholesterol domain size
- effect on sdLDL oxidation as compared to vehicle-treated controls (human sdLDL [2]): no significant effect
- effect on unfractionated LDL oxidation as compared to vehicle-treated controls [3]: no significant effect
- glucose-induced sdLDL oxidation [5]: did not inhibit glucose-induced sdLDL oxidation

SMILES: Cc1c(C)c2c(c(C)c1O)CC[C@@](C)(CCC[C@H](C)CCC[C@H](C)CCCC(C)C)O2 [vitamin E, α-tocopherol]
- effect on LOOH formation / lipid peroxidation ([1]; 72- and 96-hour time points, 1:30 drug-to-phospholipid mole ratio, glucose): no significant effect
- effect on sdLDL oxidation as compared to vehicle-treated controls (human sdLDL [2]): no significant effect
- effect on unfractionated LDL oxidation as compared to vehicle-treated controls [3]: no significant effect
- reduced TBARS levels compared to vehicle-treated controls (human sdLDL [6]; 10.0 μM, 10 μM CuSO4): 26%
- sdLDL oxidation (human sdLDL [6]; concentrations below the highest (10.0 μM)): did not inhibit sdLDL oxidation
- antioxidant effect on sdLDL oxidation [7]: no significant antioxidant effect
- glucose-induced sdLDL oxidation [5]: failed to inhibit sdLDL oxidation
- increased sdLDL oxidation as compared to glucose-treated controls [5]: 63%
- LDL oxidation [8]: did not inhibit LDL oxidation at any concentration
- effect on cholesterol domain formation as compared to control [9]: no significant effect
